Results as given in patent US20020160012A1, “Vaccine chip technology exploiting immunostimulating fragment of TGF-BETA” (priority 2000, published 2002).
No end group written: not given here.

Legend:
parvovirus peptide [1] = assay: Rabbit immunisation with parvovirus peptide, TGF-29 dose and Titermax adjuvant, serum ELISA (Example 3); assay type: in vivo, rabbits; details: bleeding T3 (6 weeks after first immunisation); 20 ug TGF-29 + 100 ug parvovirus peptide + Titermax (preparation Iris)
Description: Both preparations were subcutaneously injected into 2 groups of rabbits. Each injected dose was 0, 1 mL and the preparations for a resulting volume between 0,4 and 0,5 mL was made as follows:
The rabbits were then immunised according to the normal standard immunisation procedure for antibody production in rabbits at a legal laboratory animal facility.
(§1) Before immunisation, a pre-immunisation serum sample (T0) of each rabbit was collected. Before each of the following immunisations (given at 2 week intervals) an immune serum sample (T1, T2, or T3) was collected from each rabbit.
(§2) The serum samples were analysed on an ELISA plate according to standard laboratory operations: Coating the plate bottom with parvo virus peptide derivative overnight, washings, incubation with serial dilutions of all serum samples, washings, incubation with HRP-Goat anti Rabbit Ig, washings, incubation with substrate, stop reaction with acid, and reading of the plate.

parvovirus peptide [2] = assay: Rabbit immunisation with Parv or Parv+TGF-29, serum ELISA for antibody titre (Example 1); assay type: in vivo, rabbits; details: immune serum samples vs corresponding T0 sera; 3 subcutaneous immunisations at 2 week intervals; freunds incomplete adjuvant
Description: Both preparations were subcutaneously injected into 2 groups of rabbits. The content of each injected dose of 0.2 mL were:
The rabbits were immunised by subcuteous injection according to normal standard immunisation procedures for antibody production in rabbits at a legal laboratory animal facility.
(§3) Before immunisation, a pre-immunisation serum sample (T0) of each rabbit were collected. Two weeks after the last of 3 immunisations (given at 2 week intervals) an immune serum sample (T1) was collected from each rabbit. Hereafter further immune serum samples were collected T2 (4 weeks after T1); T3 (four weeks after T2) etc.
as §2

[3] = Clinical signs of immunised rabbits; assay type: in vivo; details: Example 1; subcutaneous, 3 immunisations at 2 week intervals
From the text: as §3
Before immunisation, a pre-immunisation serum sample (T0) of each rabbit were collected. Before each of the following immunisations (given at 2 week intervals) an immune serum sample (T1, T2, T3 or T4 ) was collected from each rabbit. The serum sampling frequency is higher compared with example 1.
as §1

| Substance | titer to the parvovirus peptide compared with the corresponding T0 serum (parvovirus peptide [1]) | titer to the parvovirus peptide, rank among all bleedings of the example (parvovirus peptide [1]) | antibody titre to the parvovirus peptide (parvovirus peptide [2]) | unusual clinical signs [3] |
| --- | --- | --- | --- | --- |
| ALDAAYCFRNVQDNCCLRPLYIDFKRDLG (cysteine pairing not given here) [TGF-29, N-terminal 29 amino acid fragment of mature TGF-β] | more than three 5-fold serial antiserum dilutions better | highest titer |  |  |
| Ac-CDGAVQPDGGQPAVRNER-NH2 [Parv] |  |  | Non-detectable or less antibody titre to the parvovirus peptide than in the corresponding T0 sera | None of the rabbits showed any unusual clinical signs |
